One may read the DC50 as the concentration at which degradation of the target reaches its halfway point.

Consider 2 molecules from patent publication US12479840B2, “HMG-CoA reductase degradation inducing compound” (Uppthera, priority 2020, dated 2025).

The structures appear in SMILES notation.

In the assay the target is T1, HMG-CoA reductase (Homo sapiens, UniProt P04035).
T1 construct: endogenous in cells; host or cells: HepG2 (Korea Cell Line Bank)
T1 sequence (P04035 1-888): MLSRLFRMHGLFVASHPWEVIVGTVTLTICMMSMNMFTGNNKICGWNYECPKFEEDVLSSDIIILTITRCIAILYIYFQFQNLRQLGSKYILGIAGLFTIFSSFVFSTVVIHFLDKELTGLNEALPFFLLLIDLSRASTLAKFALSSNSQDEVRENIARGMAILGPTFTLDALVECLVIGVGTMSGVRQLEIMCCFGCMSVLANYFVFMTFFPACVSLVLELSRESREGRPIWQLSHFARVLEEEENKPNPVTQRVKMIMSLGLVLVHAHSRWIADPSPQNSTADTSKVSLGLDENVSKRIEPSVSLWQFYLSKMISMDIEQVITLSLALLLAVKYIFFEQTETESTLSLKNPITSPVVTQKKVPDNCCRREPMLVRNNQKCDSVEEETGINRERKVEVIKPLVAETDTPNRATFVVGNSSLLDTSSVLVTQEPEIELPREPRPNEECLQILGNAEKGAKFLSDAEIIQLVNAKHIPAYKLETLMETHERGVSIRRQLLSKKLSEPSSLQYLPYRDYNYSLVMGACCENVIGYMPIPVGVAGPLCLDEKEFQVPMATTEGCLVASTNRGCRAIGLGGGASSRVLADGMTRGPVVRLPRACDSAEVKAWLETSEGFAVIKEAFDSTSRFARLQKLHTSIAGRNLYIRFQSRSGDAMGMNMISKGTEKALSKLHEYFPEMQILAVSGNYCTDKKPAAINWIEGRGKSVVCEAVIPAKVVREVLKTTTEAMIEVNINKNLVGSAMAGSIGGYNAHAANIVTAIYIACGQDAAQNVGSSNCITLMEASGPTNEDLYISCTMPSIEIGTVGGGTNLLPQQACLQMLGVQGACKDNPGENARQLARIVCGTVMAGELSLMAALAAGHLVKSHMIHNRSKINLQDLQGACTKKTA
Kind of assay: HMG-CoA reductase (HMGCR) degradation in HepG2 cells by western blotting. It counts as cell-based. Particulars: treated for 18 hours, ratio of HMG-CoA reductase to GAPDH, read-out: DC50. The essentials: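 Western blot read-out: HMGCR protein probed (1:500, 16 hours at 4° C) alongside GAPDH loading control on 15 μg BCA-normalised RIPA lysates. Lysates came from HepG2 cells (P105–P110) exposed for 18 hours to a 10-point, three-fold series starting at 3 μM.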

In the case of `Cc1ncsc1-c1ccc(CNC(=O)[C@@H]2C[C@@H](O)CN2C(=O)[C@@H](NC(=O)CCCN2CCC(CCCNC(=O)O[C@@H]3C[C@H](C)C=C4C=C[C@@H](C)[C@@H](CC[C@H]5C[C@H](O)CC(=O)O5)[C@@H]43)CC2)C(C)(C)C)cc1` [Compound 162, (1R,3S,7R,8R,8aS)-8-(2-((2S,4S)-4-hydroxy-6-oxotetrahydro-2H-pyran-2-yl)ethyl)-3,7-dimethyl-1,2,3,7,8,8a-hexahydronaphthalen-1-yl (3-(1-(4-(((S)-1-((2S,4R)-4-hydroxy-2-((4-(4-methylthiazol-5-yl)benzyl)carbamoyl)pyrrolidin-1-yl)-3,3-dimethyl-1-oxobutan-2-yl)amino)-4-oxobutyl)piperidin-4-yl)propyl)carbamate], the DC50 was less than 50 nM. Then `Cc1ncsc1-c1ccc(CNC(=O)[C@@H]2C[C@@H](O)CN2C(=O)[C@@H](NC(=O)CCCCCCCCCCNC(=O)O[C@H]2C[C@@H](C)C=C3C=C[C@H](C)[C@H](CC[C@@H]4C[C@@H](O)CC(=O)O4)[C@H]32)C(C)(C)C)cc1` [Compound 160, (1S,3R,7S,8S,8aR)-8-(2-((2R,4R)-4-hydroxy-6-oxotetrahydro-21H-pyran-2-yl)ethyl)-3,7-dimethyl-1,2,3,7,8,8a-hexahydronaphthalen-1-yl (11-(((S)-1-((2S,4R)-4-hydroxy-2-((4-(4-methylthiazol-5-yl)benzyl)carbamoyl)pyrrolidin-1-yl)-3,3-dimethyl-1-oxobutan-2-yl)amino)-11-oxoundecyl)carbamate], with less than 50 nM.
